According to US6133275A, “3-phenylpyrrolidine alpha-1 adrenergic compounds” (Abbott Laboratories, priority 1998, dated 2000):
Structures can show the parent of a compound that is named as a salt.

What was measured:
BPH patients = settings: cited from earlier work; for improvements in urinary flow rates and subjective symptom scores: longer term studies; for Clinical efficacy in BPH: BPH patients
α1b (Hamster) = biological target: T1, α1b (Hamster) (Mesocricetus auratus, UniProt P18841); test: Radioligand binding, displacement of [3H]-prazosin from cloned α1b (hamster) expressed in LTK cells; settings: [3H]-prazosin 0.2 nM; cloned hamster α1b in LTK cell membranes; 25° C., 50 minutes
T1 sequence (P18841 1-515): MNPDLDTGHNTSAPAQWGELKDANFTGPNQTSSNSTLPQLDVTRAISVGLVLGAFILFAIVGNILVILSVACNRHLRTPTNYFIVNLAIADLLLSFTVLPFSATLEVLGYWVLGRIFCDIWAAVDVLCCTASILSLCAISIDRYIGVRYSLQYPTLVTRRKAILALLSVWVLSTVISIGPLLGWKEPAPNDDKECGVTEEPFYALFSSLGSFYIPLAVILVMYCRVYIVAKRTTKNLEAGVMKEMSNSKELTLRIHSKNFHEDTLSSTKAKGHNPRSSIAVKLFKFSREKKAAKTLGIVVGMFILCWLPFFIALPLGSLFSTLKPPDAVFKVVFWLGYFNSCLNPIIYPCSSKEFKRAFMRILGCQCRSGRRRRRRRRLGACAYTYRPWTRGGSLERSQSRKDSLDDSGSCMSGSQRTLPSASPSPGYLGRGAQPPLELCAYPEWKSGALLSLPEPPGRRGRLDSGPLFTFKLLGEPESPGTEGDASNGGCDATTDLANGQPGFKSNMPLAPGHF

α1d (rat) = biological target: T2, α1d (rat) (Rattus norvegicus, UniProt P23944); test: Radioligand binding, displacement of [3H]-prazosin from cloned α1d (rat) expressed in LTK cells; settings: [3H]-prazosin 0.2 nM; cloned rat α1d in LTK cell membranes; 25° C., 50 minutes
T2 sequence (P23944 1-561): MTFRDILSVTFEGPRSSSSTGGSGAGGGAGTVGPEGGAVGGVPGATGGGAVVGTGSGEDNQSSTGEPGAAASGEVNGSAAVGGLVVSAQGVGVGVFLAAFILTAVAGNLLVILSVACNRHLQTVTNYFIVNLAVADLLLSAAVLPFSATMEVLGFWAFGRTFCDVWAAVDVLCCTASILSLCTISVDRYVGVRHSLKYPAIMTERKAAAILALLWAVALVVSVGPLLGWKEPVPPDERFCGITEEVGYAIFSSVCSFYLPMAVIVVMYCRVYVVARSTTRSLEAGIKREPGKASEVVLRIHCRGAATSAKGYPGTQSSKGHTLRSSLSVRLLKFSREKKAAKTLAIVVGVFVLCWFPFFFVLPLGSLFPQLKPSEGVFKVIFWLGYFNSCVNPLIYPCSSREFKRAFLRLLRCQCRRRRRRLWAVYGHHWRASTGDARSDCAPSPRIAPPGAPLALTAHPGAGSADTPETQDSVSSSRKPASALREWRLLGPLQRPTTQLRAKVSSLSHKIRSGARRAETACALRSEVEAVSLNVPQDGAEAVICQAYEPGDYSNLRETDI

α1a (Rat) = biological target: T3, α1a (Rat) (Rattus norvegicus, UniProt P43140); test: Radioligand binding, displacement of [3H]-prazosin from cloned α1a (rat) expressed in LTK cells; settings: [3H]-prazosin 0.2 nM; cloned rat α1a in LTK cell membranes; 25° C., 50 minutes
T3 sequence (P43140 1-466): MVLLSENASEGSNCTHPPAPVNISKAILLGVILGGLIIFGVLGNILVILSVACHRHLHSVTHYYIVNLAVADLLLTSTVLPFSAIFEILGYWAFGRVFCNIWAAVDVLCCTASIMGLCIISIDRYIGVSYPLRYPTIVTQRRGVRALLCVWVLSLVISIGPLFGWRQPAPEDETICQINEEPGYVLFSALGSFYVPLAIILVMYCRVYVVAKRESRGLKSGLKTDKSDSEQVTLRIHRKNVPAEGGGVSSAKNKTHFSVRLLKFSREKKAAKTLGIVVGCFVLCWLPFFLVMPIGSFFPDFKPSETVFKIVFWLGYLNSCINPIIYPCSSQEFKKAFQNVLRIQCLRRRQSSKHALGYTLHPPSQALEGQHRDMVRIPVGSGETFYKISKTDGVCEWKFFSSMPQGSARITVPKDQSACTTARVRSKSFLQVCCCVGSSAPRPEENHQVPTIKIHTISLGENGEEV

α1a (Bovine) = biological target: T4, α1a (Bovine) (Bos taurus, UniProt P18130); test: Radioligand binding, displacement of [3H]-prazosin from cloned α1a (bovine) expressed in LTK cells; settings: [3H]-prazosin 0.2 nM; cloned bovine α1a in LTK cell membranes; 25° C., 50 minutes
T4 sequence (P18130 1-466): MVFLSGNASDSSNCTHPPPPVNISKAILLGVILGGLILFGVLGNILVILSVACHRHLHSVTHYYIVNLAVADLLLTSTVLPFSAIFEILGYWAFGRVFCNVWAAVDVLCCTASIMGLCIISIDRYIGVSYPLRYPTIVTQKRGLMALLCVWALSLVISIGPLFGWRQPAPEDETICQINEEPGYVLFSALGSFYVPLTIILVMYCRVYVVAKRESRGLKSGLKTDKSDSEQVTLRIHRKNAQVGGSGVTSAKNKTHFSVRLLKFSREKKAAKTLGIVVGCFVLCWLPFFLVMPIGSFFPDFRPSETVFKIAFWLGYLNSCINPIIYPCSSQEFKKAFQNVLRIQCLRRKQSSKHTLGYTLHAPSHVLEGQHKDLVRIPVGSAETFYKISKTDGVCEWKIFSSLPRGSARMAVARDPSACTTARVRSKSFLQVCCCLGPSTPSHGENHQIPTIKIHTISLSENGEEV

Row | Structure (SMILES) | Ki (α1b (Hamster)) [nM] | Ki (α1d (rat)) [nM] | Ki (α1a (Rat)) [nM] | Ki (α1a (Bovine)) [nM] | improvements in urinary flow rates and subjective symptom scores (BPH patients) | Clinical efficacy in BPH (BPH patients)
1 | O=C(NC1CCN(CCc2c[nH]c3ccccc23)CC1)c1ccccc1 [indoramin] | – | – | – | – | significant improvements in urinary flow rates and subjective symptom scores | –
2 | COc1cc2nc(N3CCN(C(=O)C4CCCO4)CC3)nc(N)c2cc1OC (stereo not drawn) [terazosin] | – | – | – | – | significant improvements in urinary flow rates and subjective symptom scores | Clinical efficacy of α1 antagonists in BPH has been demonstrated
3 | COc1cc2nc(N3CCN(C(=O)c4ccco4)CC3)nc(N)c2cc1OC [prazosin] | – | – | – | – | significant improvements in urinary flow rates and subjective symptom scores | –
4 | COc1cccc([C@H]2CCN(CCn3c(=O)[nH]c4c(sc5cccnc54)c3=O)C2)c1 [Example 20, (R)-3-[2-[3-(3-methoxyphenyl)-1-pyrrolidinyl]ethyl]pyrido[2',3':4,5]thieno[3,2-d]pyrimidine-2,4(1H,3H)-dione, Dihydrochloride] | 194 | 69.4 | 46.3 | 12 | – | –
5 | COc1ccccc1[C@H]1CCN(CCCCn2c(=O)[nH]c3c(sc4ncccc43)c2=O)C1 [Example 8, (R)-3-[4-[3-(2-Methoxyphenyl)-1-pyrrolidinyl]butyl]pyrido[3',2':4,5]thieno[3,2-d]pyrimidine-2,4(1H,3H)-dione, Dihydrochloride] | 1.76 | 0.09 | 0.12 | 0.06 | – | –
6 | COc1ccccc1[C@H]1CCN(CCCn2c(=O)[nH]c3c(sc4cccnc43)c2=O)C1 [Example 5, (R)-3-[3-[3-(2-Methoxyphenyl)-1-pyrrolidinyl]propyl]pyrido[2',3':4,5]thieno[3,2-d]pyrimidine-2,4(1H,3H)-dione Dihydrochloride] | 9.68 | 2.25 | 2.05 | 1.25 | – | –
7 | COc1cc2nc(N3CCN(C(=O)C4COc5ccccc5O4)CC3)nc(N)c2cc1OC (stereo not drawn) [doxazosin] | – | – | – | – | significant improvements in urinary flow rates and subjective symptom scores | Clinical efficacy of α1 antagonists in BPH has been demonstrated
8 | COc1ccccc1[C@H]1CCN(CCn2c(=O)[nH]c3c(sc4cccnc43)c2=O)C1 [Example 4, (R)-3-[2-[3-(2-Methoxyphenyl)-1-pyrrolidinyl]ethyl]pyrido[2',3':4,5]thieno[3,2-d]pyrimidine-2,4(1H,3H)-dione bis(hydrochloride) Salt] | 1.52 | 2.38 | 2.61 | 0.83 | – | –

The next lines start with results.

Row | Ki (α1b (Hamster)) [nM] | Ki (α1d (rat)) [nM] | Ki (α1a (Rat)) [nM] | Ki (α1a (Bovine)) [nM] | Structure (SMILES) | improvements in urinary flow rates and subjective symptom scores (BPH patients) | Clinical efficacy in BPH (BPH patients)
9 | 10.7 | 3.04 | 6.79 | 1.24 | COc1cccc([C@@H]2CCN(CCn3c(=O)[nH]c4c(sc5ccccc54)c3=O)C2)c1 [Example 26, (S)-3-[2-[3-(3-methoxyphenyl)-1-pyrrolidinyl]ethyl]-[1]benzothieno[3,2-d]pyrimidine-2,4(1H,3H)-dione, Monohydrochloride] | – | –
10 | 5.61 | 3.86 | 9.33 | 1.67 | COc1ccccc1[C@@H]1CCN(CCn2c(=O)[nH]c3c(sc4ccccc43)c2=O)C1 [Example 25, (S)-3-[2-[3-(2-methoxyphenyl)-1-pyrrolidinyl]ethyl]-[1]benzothieno[3,2-d]pyrimidine-2,4(1H,3H)-dione Monohydrochloride] | – | –
11 | 88.6 | 27.8 | 25.8 | 10.3 | COc1ccccc1[C@@H]1CCN(CCCn2c(=O)[nH]c3c(sc4cccnc43)c2=O)C1 [Example 28, (S)-3-[3-[3-(2-methoxyphenyl)-1-pyrrolidinyl]propyl]pyrido[2',3':4,5]thieno[3,2-d]pyrimidine-2,4(1H,3H)-dione, Dihydrochloride] | – | –
12 | 1.02 | 0.66 | 0.46 | 0.21 | COc1ccccc1[C@H]1CCN(CCCCN2C(=O)COc3ccccc32)C1 [Example 18, (R)-4-[4-[3-(2-methoxyphenyl)-1-pyrrolidinyl]butyl]-2H-1,4-benzoxazin-3(4H)-one, Monohydrochloride] | – | –
13 | 0.62 | 0.03 | 0.18 | 0.02 | COc1ccccc1[C@H]1CCN(CCCCn2c(=O)[nH]c3c(sc4ccccc43)c2=O)C1 [Example 2, (R)-3-[4-[3-(2-Methoxyphenyl)-1-pyrrolidinyl]butyl]-[1]benzothieno[3,2-d]pyrimidine-2,4(1H,3H)-dione Monohydrochloride] | – | –
14 | 20 | 5.19 | 7.37 | 2.81 | COc1cccc([C@H]2CCN(CCCCn3c(=O)[nH]c4c(sc5ncccc54)c3=O)C2)c1 [Example 24, (R)-3-[4-[3-(3-methoxyphenyl)-1-pyrrolidinyl]butyl]pyrido[3',2':4,5]thieno[3,2-d]pyrimidine-2,4(1H,3H)-dione, Dihydrochloride] | – | –
15 | 1.77 | 0.22 | 0.12 | 0.05 | COc1ccccc1[C@H]1CCN(CCCCn2c(=O)[nH]c3c(sc4cccnc43)c2=O)C1 [Example 6, (R)-3-[4-[3-(2-Methoxyphenyl)-1-pyrrolidinyl]butyl]pyrido[2',3':4,5]thieno[3,2-d]pyrimidine-2,4(1H,3H)-dione Dihydrochloride] | – | –
16 | 0.93 | 0.23 | 0.57 | 0.15 | COc1ccccc1[C@H]1CCN(CCCCN2C(=O)CCc3ccccc32)C1 [Example 19, (R)-3,4-dihydro-1-[4-[3-(2-methoxyphenyl)-1-pyrrolidinyl]butyl]-2(1H)-quinolinone Monohydrochloride] | – | –
